Assay results from paper PMC5187537, “Antioxidant Activity of Oat Proteins Derived Peptides in Stressed Hepatic HepG2 Cells” (Antioxidants, 2016).
Peptide text beside a SMILES is read from it.

Legend:
[1] = Oxygen radical absorbance capacity (ORAC) assay; details: fluorescein 0.08 µM, AAPH 150 mM, 37 °C, 50 min, potassium phosphate buffer pH 7.4 75 mM, peptides 100 and 200 µM; triplicate, mean ± STDEV
Procedure: The ORAC assay was performed as previously described. The decay of fluorescein (0.08 µM) by AAPH (150 mM) at 37 °C was recorded at 1 min intervals over 50 min using a BioTek™ FL × 800™ fluorescent microplate reader (Fisher Scientific, Nepean, ON, Canada) with fluorescence filters (excitation 485/20 nm, emission 528/20 nm). Potassium phosphate buffer (pH 7.4, 75 mM) was used to dissolve peptides (100 and 200 µM) and Trolox standards (6.25–100 µM). Data analysis was done with Gen5^TM software (Fisher Scientific, Nepean, ON, Canada), and ORAC values were expressed as µM Trolox Equivalent (TE)/µM peptide using the standard curve.

HepG2 cells = assay: MTT cytotoxicity assay; assay type: cell-based, Human; details: 24 h
Procedure: Human hepatocellular carcinoma (HepG2) cells were purchased from the American Type Culture Collection (ATCC; Manassas, VA, USA). They were cultured at 37 °C in a humidified incubator with 5% CO2 and 95% air. Dulbecco’s Minimal Essential Media (DMEM) supplemented with 10% (v/v) Fetal Bovine Serum was used for the maintenance of cells. […] The MTT (3-(4,5-dimethylthiazol-2-yl)-2,5-diphenyltetrazolium bromide) assay, as described in an earlier research, was used for cytotoxicity and cytoprotective tests. […] Following another 24 h incubation, cells were washed twice with 200 µL of PBS. Ten µL of MTT solution (5 mg/mL in PBS) and 100 µL of media were added to each well. After 1 h, MTT solution was removed, and 50 µL DMSO were added. Absorbances were recorded at 570 nm with 630 nm background subtraction using a BioTek Epoch™ microplate reader (Fisher Scientific, Nepean, ON, Canada). Untreated cells were used as negative control (NC) and cells treated with only AAPH were used as positive control (PC).

[2] = system: glutathione (GSH) of HepG2 cells; assay: Cellular glutathione, enzymatic recycling method; assay type: cell-based, Human; details: 100 µM peptide 24 h, then AAPH 24 h, p < 0.05
Procedure: (§1) Cells were seeded at 1 × 10^6 cells/plate in 60 mm tissue culture plates and allowed to grow for 24 h. In each plate, cells were washed twice with 4 mL of PBS (pH 7.2), and treated with 4 mL peptide samples (P1, P2, P6, P7) dissolved in culture media at 50 or 100 µM for 24 h. After removal of peptide solutions, cells were washed twice with 4 mL of PBS/plate and treated with 4 mL of […] dissolved in culture media and allowed to incubate for 24 h. Cells in each culture plate were harvested by incubation (5 min) with 0.5 mL of 0.25% trypsin, addition of 1 mL of culture media and centrifugation at 1000× g for 5 min. Cell pellets were washed with ice cold PBS (500 µL each) until no pink color was observed, re-suspended in ice cold PBS (300 µL) for the superoxide dismutase (SOD) assay, 500 µL for glutathione peroxidase (GPx) and catalase (CAT) assays. For total glutathione assay, 300 µL of 5% ice cold sulfosalicylic acid bubbled with 100% nitrogen was used for cell lysis. Cells were lysed by sonication on ice for 1 min using a probe-type sonicator (Vibra-Cell, Sonics and Materials Inc., Newtown, CT, USA) pulsing at 15 s on and 10 s off cycles. Following centrifugation of cell lysate at 13,000× g (4 °C), pellets containing cell debris were discarded, while supernatants were used for determination of glutathione content. Protein contents were determined using a modified Lowry assay.
The assay was based on the enzymatic recycling method adjusted for 96-well plates. All solutions were prepared in sodium phosphate buffer (125 mM, pH 7.5) that contained 6.3 mM EDTA (ethylenediaminetetraacetic acid). In summary, 60 µL of 0.35 mM NADPH and 10 µL of 6 mM DTNB were added to wells, this was followed by the addition of 20 µL cell lysate or glutathione (GSH) standard. To initiate the reaction, 10 µL of glutathione reductase (5 IU/mL) was added and the rate of reaction between GSH from cell lysate and DTNB was measured at 412 nm. Total glutathione of cell lysates was calculated based on a standard curve of glutathione.

catalase (CAT) = assay: Catalase activity of lysates of AAPH-stressed cells; assay type: cell-based, Human; details: then AAPH 24 h; for Further increase of CAT activity compared to PC cells: 50 µM peptide 24 h
Procedure: as §1, with “assay. To measure the catalase activity, 1790 µL potassium phosphate buffer (50 mM, pH 7.0) was mixed with 200 µL cell lysate in a UV cuvette. Ten µL of H2O2 (30%) was added, and removal of H2O2 by catalase was followed at 240 nm using a Cary 50 Bio UV-Vis spectrophotometer with 18-cell changer (Varian Inc., Mississauga, ON, Canada). The activity was expressed as a percentage of control.” for “assay.”

[3] = system: glutathione peroxidase (GPx); assay: Glutathione peroxidase activity of lysates of AAPH-stressed cells; assay type: cell-based, Human; details: then AAPH 24 h; for Effect on GPx activity of AAPH-stressed cells: 50 µM peptide 24 h; for Increase of GPx activity above that of normal cells: 100 µM peptide 24 h, p < 0.05
Procedure: as §1
The activity of GPx was determined as previously described in a 96-well plate. Briefly, in each well, 187.5 µL of potassium phosphate buffer was mixed with 12.5 µL NADPH (4 mM) solution and 25 µL of cell lysates or buffer (blank), and incubated at 30 °C for 5 min. Then, 100 µL of 0.15% cumene hydroperoxide was added in each well to begin the reaction. The rate of disappearance of NADPH was followed at 340 nm for 5 min. The activity was expressed as Units of GPx activity/mg protein.

Row | SMILES | ORAC value (peroxyl radical scavenging activity) [1] | Increase in cell viability (growth promotion) (HepG2 cells; peptide alone, no AAPH, MTT (Figure 2A)) [fold] | Concentration above which cytotoxic (HepG2 cells; tested at 20–500 µM, MTT) | GSH concentration relative to normal cells [2] | Further increase of CAT activity compared to PC cells (catalase (CAT)) [%] | Effect on CAT activity (catalase (CAT); 100 µM peptide 24 h) | Effect on GPx activity of AAPH-stressed cells [3] | Increase of GPx activity above that of normal cells [3] [%] | Effect on HepG2 cell viability compared to NC (HepG2 cells; 50 and 100 µM peptide, MTT, p > 0.05)
1 | CC[C@H](C)[C@H](NC(=O)[C@H](Cc1ccc(O)cc1)NC(=O)[C@@H](NC(=O)[C@H](CC(C)C)NC(=O)CN)C(C)C)C(=O)N[C@@H](CC(C)C)C(=O)O [P2] (H-GLVYIL-OH; N-terminus and C-terminus assumed) | 0.67 ± 0.02 µM TE/µM | ~2.7 | above 450 µM | further increased | 60 | almost doubled | completely restored the activity | 30.2 | –
2 | CC[C@H](C)[C@H](NC(=O)[C@H](Cc1ccc(O)cc1)NC(=O)[C@@H](NC(=O)[C@H](CC(C)C)NC(=O)CNC(=O)[C@@H]1CCCN1C(=O)[C@H](C)NC(=O)[C@H](CC(N)=O)NC(=O)[C@H](Cc1c[nH]cn1)NC(=O)[C@@H](N)Cc1ccc(O)cc1)C(C)C)C(=O)N[C@@H](CC(C)C)C(=O)O [P6] (H-YHNAPGLVYIL-OH; N-terminus and C-terminus assumed) | 0.14–0.61 µM TE/µM | – | – | further increased | 60 | – | completely restored the activity | 38.6 | did not affect HepG2 cells viability
